Laboratory results: patent US9499519B2, “Fused pyrimidine compounds and use thereof” (Medivation Technologies, Inc., priority 2012, dated 2016)

Experiments:
[1] = test system: Akt phosphorylation induced by IGF-1R; assay: Western blot analysis of Akt phosphorylation induced by IGF-1 in HT-29 cells; assay type: cell-based, Human; conditions: for Levels of phosphorylated AKT in treated cells (pAKT/actin): HT-29 cells, IGF-1; for p-AKT relative to levels with 0.1 nM compound: Table B2 lower part; for Normalized phosphorylated AKT (relative to actin) levels relative to 0.1 nM compound treatment: Table B2 upper part
Procedure, shortened: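 HT-29 cells grown 24 h in DME/F12 with 10% FBS, serum-starved 24 h, then exposed 2 h to compound at 0.1, 1, 10 or 100; controls received DMSO or 10 ng/mL IGF-1. Lysate soluble fractions quantified by BCA before western blotting for phospho-Akt.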

[2] = molecular target: T1, IGF-1R (Homo sapiens, UniProt P08069); assay: In vitro IGF-1R enzymatic assay (ADP-Glo kinase assay); assay type: biochemical; conditions: activated IGF-1R; for inhibition at 1 µM: in duplicate, read-out: inhibition of binding
T1 construct: purchased Millipore 14-802
T1 sequence (P08069 31-1367): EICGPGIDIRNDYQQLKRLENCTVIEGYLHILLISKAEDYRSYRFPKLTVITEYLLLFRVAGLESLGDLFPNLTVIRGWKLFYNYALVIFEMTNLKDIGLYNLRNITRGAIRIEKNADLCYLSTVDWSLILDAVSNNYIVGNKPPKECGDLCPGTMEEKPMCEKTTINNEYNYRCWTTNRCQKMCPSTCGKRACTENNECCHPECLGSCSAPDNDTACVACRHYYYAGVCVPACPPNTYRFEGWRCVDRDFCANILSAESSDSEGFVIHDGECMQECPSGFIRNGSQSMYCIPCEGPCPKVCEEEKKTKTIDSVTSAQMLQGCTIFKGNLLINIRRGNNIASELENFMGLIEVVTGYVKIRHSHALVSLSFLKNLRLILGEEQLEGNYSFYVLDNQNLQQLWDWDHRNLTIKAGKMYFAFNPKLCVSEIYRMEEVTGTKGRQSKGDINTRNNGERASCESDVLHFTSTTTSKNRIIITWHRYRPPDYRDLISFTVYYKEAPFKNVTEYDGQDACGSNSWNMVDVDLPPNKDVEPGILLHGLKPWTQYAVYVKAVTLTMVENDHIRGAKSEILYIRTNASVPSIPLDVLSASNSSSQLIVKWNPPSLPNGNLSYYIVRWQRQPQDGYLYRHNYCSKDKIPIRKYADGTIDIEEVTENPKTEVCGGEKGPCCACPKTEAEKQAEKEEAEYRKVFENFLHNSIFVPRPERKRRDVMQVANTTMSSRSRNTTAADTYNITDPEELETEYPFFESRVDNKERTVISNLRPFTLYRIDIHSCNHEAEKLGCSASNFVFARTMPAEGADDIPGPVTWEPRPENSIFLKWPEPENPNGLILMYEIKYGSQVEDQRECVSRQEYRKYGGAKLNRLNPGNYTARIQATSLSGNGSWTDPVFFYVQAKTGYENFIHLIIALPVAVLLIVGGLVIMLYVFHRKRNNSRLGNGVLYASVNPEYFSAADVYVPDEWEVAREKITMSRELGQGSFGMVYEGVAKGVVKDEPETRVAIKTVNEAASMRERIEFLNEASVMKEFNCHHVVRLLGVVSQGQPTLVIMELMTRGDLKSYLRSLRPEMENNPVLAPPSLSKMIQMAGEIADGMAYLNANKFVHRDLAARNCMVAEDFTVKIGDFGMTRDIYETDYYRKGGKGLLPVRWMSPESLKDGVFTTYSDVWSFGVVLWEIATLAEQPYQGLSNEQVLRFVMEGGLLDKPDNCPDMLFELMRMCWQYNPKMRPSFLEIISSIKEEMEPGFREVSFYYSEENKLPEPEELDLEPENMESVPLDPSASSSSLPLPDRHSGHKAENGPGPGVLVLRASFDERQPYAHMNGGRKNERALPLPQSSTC
Procedure: (§1) IC50 values of the compounds of the invention against IGF-1R and IR were measured in vitro using an ADP-Glo kinase assay Kit (Promega). […] Kinase reactions in both assays were conducted at 30° C. for 20 min with increasing concentrations of compounds of the invention.
Additional compounds of the invention were screened against activated IGF-1R.

[3] = molecular target: T2, IR (Homo sapiens, UniProt P06213); assay: In vitro IR enzymatic assay (ADP-Glo kinase assay); assay type: biochemical; conditions: activated IR, 30 nM
T2 construct: purchased Millipore 14-803
T2 sequence (P06213 28-1382): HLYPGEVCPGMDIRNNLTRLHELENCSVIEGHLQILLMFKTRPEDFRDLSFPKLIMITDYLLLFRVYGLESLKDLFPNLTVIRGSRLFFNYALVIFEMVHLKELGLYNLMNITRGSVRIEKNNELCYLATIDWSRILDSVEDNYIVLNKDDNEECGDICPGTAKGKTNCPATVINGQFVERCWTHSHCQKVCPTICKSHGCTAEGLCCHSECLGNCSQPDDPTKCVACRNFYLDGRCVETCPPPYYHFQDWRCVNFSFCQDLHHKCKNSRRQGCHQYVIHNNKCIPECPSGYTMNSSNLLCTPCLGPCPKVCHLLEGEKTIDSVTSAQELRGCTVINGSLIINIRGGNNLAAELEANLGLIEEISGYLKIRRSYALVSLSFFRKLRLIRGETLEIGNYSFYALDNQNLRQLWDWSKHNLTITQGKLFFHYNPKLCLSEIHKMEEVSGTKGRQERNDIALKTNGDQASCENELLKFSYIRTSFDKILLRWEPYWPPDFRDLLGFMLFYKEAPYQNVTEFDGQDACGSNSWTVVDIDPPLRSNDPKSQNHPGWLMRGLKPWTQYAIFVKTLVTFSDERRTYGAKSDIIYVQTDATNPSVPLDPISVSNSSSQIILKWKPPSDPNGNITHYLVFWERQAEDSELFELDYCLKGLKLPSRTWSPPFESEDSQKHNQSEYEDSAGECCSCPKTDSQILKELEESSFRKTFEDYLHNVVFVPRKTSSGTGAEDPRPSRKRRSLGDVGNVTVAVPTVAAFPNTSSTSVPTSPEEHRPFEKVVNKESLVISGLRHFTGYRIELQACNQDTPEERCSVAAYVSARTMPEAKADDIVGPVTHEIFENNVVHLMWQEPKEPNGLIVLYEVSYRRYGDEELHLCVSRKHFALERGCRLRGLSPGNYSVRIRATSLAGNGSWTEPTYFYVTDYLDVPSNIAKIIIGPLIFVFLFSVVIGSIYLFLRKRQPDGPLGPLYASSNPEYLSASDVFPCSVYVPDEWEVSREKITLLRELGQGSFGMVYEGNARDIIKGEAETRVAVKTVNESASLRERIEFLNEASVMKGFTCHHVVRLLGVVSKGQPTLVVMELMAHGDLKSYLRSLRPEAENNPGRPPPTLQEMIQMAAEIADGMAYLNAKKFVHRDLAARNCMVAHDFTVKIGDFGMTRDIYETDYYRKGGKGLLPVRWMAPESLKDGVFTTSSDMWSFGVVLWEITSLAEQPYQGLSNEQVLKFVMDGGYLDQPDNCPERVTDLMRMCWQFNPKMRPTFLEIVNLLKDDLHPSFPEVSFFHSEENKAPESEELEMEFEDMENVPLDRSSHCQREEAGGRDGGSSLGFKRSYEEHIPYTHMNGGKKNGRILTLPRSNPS
Procedure: as §1
Additional compounds of the invention were screened against activated IR.

[4] = molecular target: Trk A (Homo sapiens, UniProt P04629); assay: HotSpot kinase assay: Trk A; assay type: biochemical; conditions: 100 nM compound; for inhibition at 0.1 µM: read-out: % Enzyme Inhibition @ 100 nM Trk A
Sequence of Trk A (P04629 33-796): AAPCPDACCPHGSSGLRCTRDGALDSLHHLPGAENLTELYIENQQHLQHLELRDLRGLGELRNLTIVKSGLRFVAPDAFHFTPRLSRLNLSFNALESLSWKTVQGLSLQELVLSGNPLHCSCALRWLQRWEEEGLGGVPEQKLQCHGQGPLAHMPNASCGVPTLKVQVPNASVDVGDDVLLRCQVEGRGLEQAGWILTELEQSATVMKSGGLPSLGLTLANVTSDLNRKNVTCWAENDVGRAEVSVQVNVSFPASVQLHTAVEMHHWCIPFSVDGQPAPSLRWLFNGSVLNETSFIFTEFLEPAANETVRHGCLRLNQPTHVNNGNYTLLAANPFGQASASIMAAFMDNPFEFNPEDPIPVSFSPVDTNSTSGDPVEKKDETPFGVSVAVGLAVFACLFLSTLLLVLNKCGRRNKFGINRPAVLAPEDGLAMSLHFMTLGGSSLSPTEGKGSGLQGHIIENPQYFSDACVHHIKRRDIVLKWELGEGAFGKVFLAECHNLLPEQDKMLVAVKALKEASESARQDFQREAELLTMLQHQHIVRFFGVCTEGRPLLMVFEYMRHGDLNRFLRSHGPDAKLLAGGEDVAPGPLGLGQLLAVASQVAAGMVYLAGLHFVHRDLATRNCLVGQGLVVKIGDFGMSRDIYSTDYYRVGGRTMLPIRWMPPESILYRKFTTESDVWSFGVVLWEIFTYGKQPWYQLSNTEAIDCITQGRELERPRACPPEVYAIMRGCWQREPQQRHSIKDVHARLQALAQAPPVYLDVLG
Procedure: Kinase assays were performed using additional compounds against a panel of 3 kinases: Trk A; Trk B; and Trk C. Each compound was tested at a concentration of 0.1 μM in single duplicate mode against the 3 kinases. Compounds were prepared as 10 mM stock solutions in DMSO prior to use in the assay. […] IC50 values and curve fits were obtained using Prism (GraphPad Software). […]
The screening was performed using the “HotSpot” assay platform. The assay measures the conversion of a peptide substrate to ^33P-labelled phosphorylated product. Briefly, specific kinase/substrate pairs along with required cofactors were prepared in reaction buffer. Specifically, the substrate was prepared in reaction buffer (20 mM Hepes, pH 7.5; 10 mM MgCl2; 1 mM EGTA; 0.02% Brij35; 0.02 mg/mL BSA; 0.1 mM Na3VO4; 2 mM DTT; 1% DMSO), followed by delivery of any required cofactor to the resulting substrate solution. The corresponding kinase was delivered into the substrate solution and the reaction mixture was mixed gently. Compound was delivered into the reaction mixture, followed 15-20 minutes later by addition of a mixture of ATP (Sigma, St. Louis Mo.) and ^33P ATP (specific activity 0.01 μCi/μL final; Perkin Elmer, Waltham, Mass.) to a final concentration of 10 μM-30 μM to initiate the reaction. Reactions were carried out at room temperature for 120 minutes, followed by spotting of the reactions onto P81 ion exchange filter paper (Whatman #3698-915; Whatman Inc., Piscataway, N.J.). Unbound phosphate was removed by extensive washing of filters in 0.75% phosphoric acid. […] The percent of enzyme inhibition was calculated based on the percent of remaining kinase activity.

[5] = molecular target: Trk B (Homo sapiens, UniProt Q16620); assay: HotSpot kinase assay: Trk B; assay type: biochemical; conditions: 100 nM compound; for inhibition at 0.1 µM: read-out: % Enzyme Inhibition @ 100 nM Trk B
Sequence of Trk B (Q16620 32-822): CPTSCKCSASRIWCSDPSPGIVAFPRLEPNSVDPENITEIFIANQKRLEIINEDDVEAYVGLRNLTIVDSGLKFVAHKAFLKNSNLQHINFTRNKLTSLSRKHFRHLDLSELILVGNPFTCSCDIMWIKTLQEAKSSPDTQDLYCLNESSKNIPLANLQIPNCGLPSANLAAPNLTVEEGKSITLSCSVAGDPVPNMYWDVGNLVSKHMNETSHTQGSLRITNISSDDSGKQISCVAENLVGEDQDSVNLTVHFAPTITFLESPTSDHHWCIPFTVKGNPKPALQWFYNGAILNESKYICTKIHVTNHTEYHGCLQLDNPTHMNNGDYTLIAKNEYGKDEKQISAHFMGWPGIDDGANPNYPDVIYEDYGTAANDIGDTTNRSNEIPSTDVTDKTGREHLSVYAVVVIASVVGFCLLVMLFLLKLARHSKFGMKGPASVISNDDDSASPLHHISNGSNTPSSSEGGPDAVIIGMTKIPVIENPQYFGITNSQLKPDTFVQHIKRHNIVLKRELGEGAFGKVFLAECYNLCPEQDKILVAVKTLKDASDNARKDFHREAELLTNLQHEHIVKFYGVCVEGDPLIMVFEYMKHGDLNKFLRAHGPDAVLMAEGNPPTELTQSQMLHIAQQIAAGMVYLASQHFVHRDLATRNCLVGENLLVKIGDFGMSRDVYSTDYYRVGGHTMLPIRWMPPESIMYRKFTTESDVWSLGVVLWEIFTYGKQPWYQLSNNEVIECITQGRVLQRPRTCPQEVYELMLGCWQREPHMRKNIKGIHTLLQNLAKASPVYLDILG
Procedure: (§2) Each compound was tested at a concentration of 0.1 μM in single duplicate mode against the 3 kinases. Compounds were prepared as 10 mM stock solutions in DMSO prior to use in the assay. […] IC50 values and curve fits were obtained using Prism (GraphPad Software).
(§3) The screening was performed using the “HotSpot” assay platform. The assay measures the conversion of a peptide substrate to ^33P-labelled phosphorylated product. Briefly, specific kinase/substrate pairs along with required cofactors were prepared in reaction buffer. Specifically, the substrate was prepared in reaction buffer (20 mM Hepes, pH 7.5; 10 mM MgCl2; 1 mM EGTA; 0.02% Brij35; 0.02 mg/mL BSA; 0.1 mM Na3VO4; 2 mM DTT; 1% DMSO), followed by delivery of any required cofactor to the resulting substrate solution. The corresponding kinase was delivered into the substrate solution and the reaction mixture was mixed gently. Compound was delivered into the reaction mixture, followed 15-20 minutes later by addition of a mixture of ATP (Sigma, St. Louis Mo.) and ^33P ATP (specific activity 0.01 μCi/μL final; Perkin Elmer, Waltham, Mass.) to a final concentration of 10 μM-30 μM to initiate the reaction. […] The percent of enzyme inhibition was calculated based on the percent of remaining kinase activity.

[6] = molecular target: Trk C (Homo sapiens, UniProt Q16288); assay: HotSpot kinase assay: Trk C; assay type: biochemical; conditions: 100 nM compound, HotSpot; for inhibition at 0.1 µM: read-out: % Enzyme Inhibition @ 100 nM Trk C
Sequence of Trk C (Q16288 32-839): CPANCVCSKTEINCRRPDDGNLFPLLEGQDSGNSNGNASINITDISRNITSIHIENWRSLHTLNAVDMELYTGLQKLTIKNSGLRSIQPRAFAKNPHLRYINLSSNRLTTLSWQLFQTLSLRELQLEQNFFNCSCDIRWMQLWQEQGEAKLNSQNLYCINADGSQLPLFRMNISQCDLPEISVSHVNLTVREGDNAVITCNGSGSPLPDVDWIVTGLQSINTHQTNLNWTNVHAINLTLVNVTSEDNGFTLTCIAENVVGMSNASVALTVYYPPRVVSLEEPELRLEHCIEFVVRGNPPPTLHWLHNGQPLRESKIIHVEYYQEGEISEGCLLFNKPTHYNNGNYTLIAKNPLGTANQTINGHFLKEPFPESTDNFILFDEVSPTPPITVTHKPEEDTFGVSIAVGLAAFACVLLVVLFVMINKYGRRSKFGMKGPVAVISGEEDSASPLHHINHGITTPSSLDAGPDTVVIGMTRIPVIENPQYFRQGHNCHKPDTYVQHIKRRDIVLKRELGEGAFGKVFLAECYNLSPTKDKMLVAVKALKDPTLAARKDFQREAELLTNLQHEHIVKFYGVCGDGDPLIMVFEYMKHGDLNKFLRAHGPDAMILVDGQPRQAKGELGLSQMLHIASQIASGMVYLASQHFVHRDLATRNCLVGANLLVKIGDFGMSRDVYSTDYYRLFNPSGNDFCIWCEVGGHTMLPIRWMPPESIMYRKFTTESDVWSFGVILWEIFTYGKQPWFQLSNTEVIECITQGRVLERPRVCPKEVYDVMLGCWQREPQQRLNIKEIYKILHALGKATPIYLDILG
Procedure: as §2, §3
Kinase assays were performed using additional compounds against a panel of 4 kinases: AXL; c-Met; c-Mer; and Trk C. Each compound was tested at a concentration of […] in single duplicate mode against the 4 kinases. Compounds were prepared as 10 mM stock solutions in DMSO prior to use in the assay. […] IC50 values and curve fits were obtained using Prism (GraphPad Software).

[7] = molecular target: T2, IR; assay: In vitro IR enzymatic assay (ADP-Glo kinase assay); assay type: biochemical; conditions: activated IR, in duplicate, read-out: inhibition of binding

SMILES | inhibition at 1 µM [2] | inhibition at 1 µM [7] | inhibition at 0.1 µM [4] | inhibition at 0.1 µM [5] | inhibition at 0.1 µM [6] | % Enzyme Inhibition @ 100 nM Trk B [5] | % Enzyme Inhibition @ 100 nM Trk C [6] | other results
O=C(Nc1ccc(F)nc1)C1CCCCN1c1nc2c(c(Nc3cc(C4CCCC4)[nH]n3)n1)CCC2 (single isomer, unassigned) [Compound 17b, 1-(4-(5-cyclopentyl-1H-pyrazol-3-ylamino)-6,7-dihydro-5H-cyclopenta[d]pyrimidin-2-yl)-N-(6-fluoropyridin-3-yl)piperidine-2-carboxamide] | – | – | – | – | – | – | – | Levels of phosphorylated AKT in treated cells (pAKT/actin) ([1]; 0.1 nM compound): 0.83; p-AKT relative to levels with 0.1 nM compound ([1]; 0.1 nM): 1.0; Normalized phosphorylated AKT (relative to actin) levels relative to 0.1 nM compound treatment ([1]; 0.1 nM): 1.0; Levels of phosphorylated AKT in treated cells (pAKT/actin) ([1]; 1 nM compound): 0.99; p-AKT relative to levels with 0.1 nM compound ([1]; 1 nM): 1.2; Normalized phosphorylated AKT (relative to actin) levels relative to 0.1 nM compound treatment ([1]; 1 nM): 1.2; Levels of phosphorylated AKT in treated cells (pAKT/actin) ([1]; 10 nM compound): 0.95; p-AKT relative to levels with 0.1 nM compound ([1]; 10 nM): 1.1; Normalized phosphorylated AKT (relative to actin) levels relative to 0.1 nM compound treatment ([1]; 10 nM): 1.1; Levels of phosphorylated AKT in treated cells (pAKT/actin) ([1]; 100 nM compound): 1.08; p-AKT relative to levels with 0.1 nM compound ([1]; 100 nM): 1.3; Normalized phosphorylated AKT (relative to actin) levels relative to 0.1 nM compound treatment ([1]; 100 nM): 1.3; % Inh @ 30 nM (N1) ([2]; 30 nM, N1, 0.03 µM): 21%; % Inh @ 30 nM (N2) ([2]; 30 nM, N2, 0.03 µM): 23%; % Inh @ 30 nM Avg ([2]; 30 nM, average): 22%; % Inh @ 30 nM (N1) ([3]; N1): 2%; % Inh @ 30 nM (N2) ([3]; N2, 0.03 µM): 10%; % Inh @ 30 nM Avg ([3]; average): 6%
CC(C)c1cc(Nc2nc(N3CC(O)CC3C(=O)N3CCCCC3)nc3c2CCC3)n[nH]1 (stereo not shown) [Compound 107a, (4-hydroxy-1-(4-(5-isopropyl-1H-pyrazol-3-ylamino)-6,7-dihydro-5H-cyclopenta[d]pyrimidin-2-yl)pyrrolidin-2-yl)(piperidin-1-yl)methanone] | < 35% | ≤ 40% | – | – | – | ++ (Medium (40 to 59% inhibition, ++)) | +++ (High (60% or higher inhibition, +++)) | % Enzyme Inhibition @ 100 nM Trk A [4]: + (Low (39% or lower inhibition, +))
CC(C)c1cc(Nc2nc(N3CC(O)CC3C(=O)N3CCCCC3)nc3c2CCC3)n[nH]1 (stereo not shown) [Compound 107b, (4-hydroxy-1-(4-(5-isopropyl-1H-pyrazol-3-ylamino)-6,7-dihydro-5H-cyclopenta[d]pyrimidin-2-yl)pyrrolidin-2-yl)(piperidin-1-yl)methanone] | – | – | < 39% | < 39% | – | – | + (Low (39% or lower inhibition, +)) | –
O=C(C1CC(O)CN1c1nc2c(c(Nc3cc(C4CCCC4)[nH]n3)n1)CCC2)N1CCCCC1 (stereo not shown) [Compound 108a, (1-(4-(5-cyclopentyl-1H-pyrazol-3-ylamino)-6,7-dihydro-5H-cyclopenta[d]pyrimidin-2-yl)-4-hydroxypyrrolidin-2-yl)(piperidin-1-yl)methanone] | < 35% | ≤ 40% | – | – | – | +++ (High (60% or higher inhibition, +++)) | +++ (High (60% or higher inhibition, +++)) | % Enzyme Inhibition @ 100 nM Trk A [4]: + (Low (39% or lower inhibition, +))
O=C(C1CC(O)CN1c1nc2c(c(Nc3cc(C4CCCC4)[nH]n3)n1)CCC2)N1CCCCC1 (stereo not shown) [Compound 108b, (1-(4-(5-cyclopentyl-1H-pyrazol-3-ylamino)-6,7-dihydro-5H-cyclopenta[d]pyrimidin-2-yl)-4-hydroxypyrrolidin-2-yl)(piperidin-1-yl)methanone] | – | – | 40 to 59% | 40 to 59% | > 60% | – | – | –
CC(C)c1cc(Nc2nc(N3CC(O)CC3C(=O)N(C)C)nc3c2CCC3)n[nH]1 (stereo not shown) [Compound 109a, 4-hydroxy-1-(4-(5-isopropyl-1H-pyrazol-3-ylamino)-6,7-dihydro-5H-cyclopenta[d]pyrimidin-2-yl)-N,N-dimethylpyrrolidine-2-carboxamide] | < 35% | ≤ 40% | < 39% | < 39% | < 39% | – | – | –
O=C(C1CCCN1c1nc2c(c(Nc3cc(C4CCCC4)[nH]n3)n1)CCC2)N1CCCCC1 (stereo not shown) [Compound 111a, (1-(4-(5-cyclopentyl-1H-pyrazol-3-ylamino)-6,7-dihydro-5H-cyclopenta[d]pyrimidin-2-yl)pyrrolidin-2-yl)(piperidin-1-yl)methanone] | < 35% | ≤ 40% | 40 to 59% | > 60% | > 60% | – | – | –
O=C(C1CCCN1c1nc2c(c(Nc3cc(C4CCCCC4)[nH]n3)n1)CCC2)N1CCCCC1 (stereo not shown) [Compound 113b, (1-(4-(5-cyclohexyl-1H-pyrazol-3-ylamino)-6,7-dihydro-5H-cyclopenta[d]pyrimidin-2-yl)pyrrolidin-2-yl)(piperidin-1-yl)methanone] | – | – | 40 to 59% | – | > 60% | +++ (High (60% or higher inhibition, +++)) | – | –

Second part, led by results:

inhibition at 1 µM [2] | inhibition at 1 µM [7] | inhibition at 0.1 µM [4] | inhibition at 0.1 µM [5] | inhibition at 0.1 µM [6] | SMILES | % Enzyme Inhibition @ 100 nM Trk B [5] | % Enzyme Inhibition @ 100 nM Trk C [6] | other results
< 35% | ≤ 40% | – | – | – | CN(C)C(=O)C1CC(O)CN1c1nc2c(c(Nc3cc(C4CCCC4)[nH]n3)n1)CCC2 (stereo not shown) [Compound 110a, 1-(4-(5-cyclopentyl-1H-pyrazol-3-ylamino)-6,7-dihydro-5H-cyclopenta[d]pyrimidin-2-yl)-4-hydroxy-N,N-dimethylpyrrolidine-2-carboxamide] | ++ (Medium (40 to 59% inhibition, ++)) | +++ (High (60% or higher inhibition, +++)) | % Enzyme Inhibition @ 100 nM Trk A [4]: + (Low (39% or lower inhibition, +))
– | – | < 39% | < 39% | 40 to 59% | CN(C)C(=O)C1CC(O)CN1c1nc2c(c(Nc3cc(C4CCCC4)[nH]n3)n1)CCC2 (stereo not shown) [Compound 110b, 1-(4-(5-cyclopentyl-1H-pyrazol-3-ylamino)-6,7-dihydro-5H-cyclopenta[d]pyrimidin-2-yl)-4-hydroxy-N,N-dimethylpyrrolidine-2-carboxamide] | – | – | –
– | – | < 39% | > 60% | > 60% | CN(C)C(=O)C1CCCN1c1nc2c(c(Nc3cc(C4CCCCC4)[nH]n3)n1)CCC2 (stereo not shown) [Compound 114b, 1-(4-(5-cyclohexyl-1H-pyrazol-3-ylamino)-6,7-dihydro-5H-cyclopenta[d]pyrimidin-2-yl)-N,N-dimethylpyrrolidine-2-carboxamide] | – | – | –
